Reference: patent publication US9546168B2, “ERK inhibitors” (Merck Sharp & Dohme Corp., priority 2013, dated 2017)

Target: phosphorylated active hERK2 enzyme (Homo sapiens (Human), UniProt P28482)
Assay: Active Human ERK2 (hERK2) Activity Assay (IMAP-FP)
Type: biochemical
Details: 0.5 nM hERK2, 30 μM ATP, 10 point titration
Description: Active Human ERK2 (hERK2) Activity Assay:
Activated ERK2 activity was determined in an IMAP-FP assay (Molecular Devices). Using this assay format, the potency (IC50) of each compound was determined from a 10 point (1:3 serial dilution, 3 μM starting compound concentration) titration curve using the following outlined procedure. […] Following a 15 minute compound & enzyme incubation, each reaction was initiated by the addition of 10 μL kinase buffer containing 2.45 μM ERK2 IMAP substrate peptides and 75 μM ATP. The final reaction in each well of 25 μL consists of 0.5 nM hERK2, 900 nM unlabeled peptide, 80 nM labeled-peptide, and 30 μM ATP. Phosphorylation reactions were allowed to proceed for 60 minutes and were immediately quenched by the addition of 60 μL IMAP detection beads (1:1000 dilutions) in IMAP binding buffer (Molecular Devices) with 24 mM NaCl. Plates were read on EnVision reader after 60 minutes binding equilibration using Fluorescence Polarization protocol (Perkin Elmer).

Sequence of phosphorylated active hERK2 enzyme (P28482 whole entry): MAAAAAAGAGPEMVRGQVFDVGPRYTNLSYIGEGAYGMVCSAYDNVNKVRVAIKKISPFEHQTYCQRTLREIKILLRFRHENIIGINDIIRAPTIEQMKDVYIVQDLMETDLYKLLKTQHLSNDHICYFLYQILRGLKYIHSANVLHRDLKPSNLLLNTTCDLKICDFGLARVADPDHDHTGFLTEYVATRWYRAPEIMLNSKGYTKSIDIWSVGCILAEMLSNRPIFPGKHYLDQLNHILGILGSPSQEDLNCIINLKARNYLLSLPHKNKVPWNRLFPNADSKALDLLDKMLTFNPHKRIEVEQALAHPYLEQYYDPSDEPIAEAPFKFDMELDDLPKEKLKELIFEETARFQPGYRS

## Cc1nc(NC(=O)N[C@H](C)c2ccccc2)cc2[nH]nc(-c3ccnc(F)c3)c12 [Example 2, 1-[3-(2-fluoropyridin-4-yl)-4-methyl-1H-pyrazolo[4,3-c]pyridin-6-yl]-3-[(1R)-1-phenylethyl]urea]
  IC50: 1.24 nM

## C[C@@H](NC(=O)Nc1cc2[nH]nc(C(F)(F)F)c2c(CO)n1)c1ccccc1 [Example 29, (R)-1-(4-(hydroxymethyl)-3-(trifluoromethyl)-1H-pyrazolo[4,3-c]pyridin-6-yl)-3-(1-phenylethyl)urea]
  IC50: 13.2 nM

## C[C@@H](NC(=O)Nc1cc2[nH]nc(C3CC3)c2c(CO)n1)c1ccccc1 [Example 5, (R)-1-(3-cyclopropyl-4-(hydroxymethyl)-1H-pyrazolo[4,3-c]pyridin-6-yl)-3-(1-phenylethyl)urea]
  IC50: 0.72 nM

## C[C@@H](NC(=O)Nc1cc2[nH]nc(-c3ccc(F)cc3)c2c(CO)n1)c1ccccc1 [Example 11, 1-[3-(4-fluorophenyl)-4-(hydroxymethyl)-1H-pyrazolo[4,3-c]pyridin-6-yl]-3-[(1R)-1-phenylethyl]urea]
  IC50: 0.45 nM

## C[C@@H](NC(=O)Nc1cc2[nH]nc(-c3ccnc(C#N)c3)c2c(CO)n1)c1ccccc1 [Example 12, 1-[3-(2-cyanopyridin-4-yl)-4-(hydroxymethyl)-1H-pyrazolo[4,3-c]pyridin-6-yl]-3-[(1R)-1-phenylethyl]urea]
  IC50: 1.64 nM

## C[C@@H](NC(=O)Nc1cc2[nH]nc(C(F)F)c2c(CO)n1)c1ccccc1 [Example 24, 1-[3-(difluoromethyl)-4-(hydroxymethyl)-1H-pyrazolo[4,3-c]pyridin-6-yl]-3-[(1R)-1-phenylethyl]urea]
  IC50: 1.25 nM

## C[C@@H](NC(=O)Nc1cc2[nH]nc(CO)c2c(CO)n1)c1ccccc1 [Example 25, (R)-1-(3,4-bis(hydroxymethyl)-1H-pyrazolo[4,3-c]pyridin-6-yl)-3-(1-phenylethyl)urea]
  IC50: 1.85 nM

## Cc1cc(-c2n[nH]c3cc(NC(=O)N[C@H](C)c4ccccc4)nc(C)c23)ccn1 [Example 1, (R)-1-(4-Methyl-3-(2-methylpyridin-4-yl)-1H-pyrazolo[4,3-c]pyridin-6-yl)-3-(1-phenylethyl)urea]
  IC50: 0.37 nM

## CC(C)(O)[C@@H](NC(=O)Nc1cc2[nH]nc(-c3ccc(F)cc3)c2c(CO)n1)c1ccccc1 [Example 13, 1-[3-(4-fluorophenyl)-4-(hydroxymethyl)-1H-pyrazolo[4,3-c]pyridin-6-yl]-3-[(1S)-2-hydroxy-2-methyl-1-phenylpropyl]urea]
  IC50: 0.31 nM

## Cc1nc(NC(=O)N[C@@H](c2ccccc2)C(C)(C)O)cc2[nH]nc(C(F)F)c12 [Example 21, (S)-1-(3-(difluoromethyl)-4-methyl-1H-pyrazolo[4,3-c]pyridin-6-yl)-3-(2-hydroxy-2-methyl-1-phenylpropyl)urea]
  IC50: 0.61 nM

## Cc1cc(-c2n[nH]c3cc(NC(=O)N[C@H](COC(F)F)c4ccccc4)nc(CO)c23)ccn1 [Example 10, 1-[(1S)-2-(difluoromethoxy)-1-phenylethyl]-3-[4-(hydroxymethyl)-3-(2-methylpyridin-4-yl)-1H-pyrazolo[4,3-c]pyridin-6-yl]urea]
  IC50: 0.66 nM

## CC(C)(O)[C@@H](NC(=O)Nc1cc2[nH]nc(C(F)F)c2c(CO)n1)c1ccc(F)cc1 [Example 23, 1-[3-(difluoromethyl)-4-(hydroxymethyl)-1H-pyrazolo[4,3-c]pyridin-6-yl]-3-[(1S)-1-(4-fluorophenyl)-2-hydroxy-2-methylpropyl]urea]
  IC50: 0.49 nM

## CC(C)(O)[C@@H](NC(=O)Nc1cc2[nH]nc(C(F)F)c2c(CO)n1)c1ccccc1 [Example 22, (S)-1-(3-(difluoromethyl)-4-(hydroxymethyl)-1H-pyrazolo[4,3-c]pyridin-6-yl)-3-(2-hydroxy-2-methyl-1-phenylpropyl)urea]
  IC50: 0.75 nM

## CC(C)(O)[C@@H](NC(=O)Nc1cc2[nH]nc(C3CC3)c2c(CO)n1)c1ccccc1 [Example 6, 1-[3-cyclopropyl-4-(hydroxymethyl)-1H-pyrazolo[4,3-c]pyridin-6-yl]-3-[(1S)-2-hydroxy-2-methyl-1-phenylpropyl]urea]
  IC50: 4.34 nM

## C[C@@H](O)[C@@H](NC(=O)Nc1cc2[nH]nc(C3CC3)c2c(CO)n1)c1ccccc1 [Example 9, 1-[3-cyclopropyl-4-(hydroxymethyl)-1H-pyrazolo[4,3-c]pyridin-6-yl]-3-[(1S,2R)-2-hydroxy-1-phenylpropyl]urea]
  IC50: 0.75 nM

## C[C@@H](NC(=O)Nc1cc2[nH]nc(-c3ccnc(F)c3)c2c(CO)n1)c1ccccc1 [Example 3, (R)-1-(3-(2-fluoropyridin-4-yl)-4-(hydroxymethyl)-1H-pyrazolo[4,3-c]pyridin-6-yl)-3-(1-phenylethyl)urea]
  IC50: 0.92 nM

## CC(C)(O)[C@@H](NC(=O)Nc1cc2[nH]nc(C3CC3)c2c(CO)n1)c1ccc(F)cc1 [Example 7, 1-[3-cyclopropyl-4-(hydroxymethyl)-1H-pyrazolo[4,3-c]pyridin-6-yl]-3-[(1S)-1-(4-fluorophenyl)-2-hydroxy-2-methylpropyl]urea]
  IC50: 0.83 nM

## Cc1cc(-c2n[nH]c3cc(NC(=O)N[C@H](C)c4ccccc4)nc(CO)c23)ccn1 [Example 4, (R)-1-(4-(hydroxymethyl)-3-(2-methylpyridin-4-yl)-1H-pyrazolo[4,3-c]pyridin-6-yl)-3-(1-phenylethyl)urea]
  IC50: 0.39 nM

## CC(F)(F)c1n[nH]c2cc(NC(=O)N[C@@H](c3ccccc3)C(C)(C)O)nc(CO)c12 [Example 28, (S)-1-(3-(1,1-difluoroethyl)-4-(hydroxymethyl)-1H-pyrazolo[4,3-c]pyridin-6-yl)-3-(2-hydroxy-2-methyl-1-phenylpropyl)urea]
  IC50: 14.1 nM

## CC(C)(C)[C@@H](NC(=O)Nc1cc2[nH]nc(-c3ccc(F)cc3)c2c(CO)n1)c1ccccc1 [Example 17, 1-[(1R)-2,2-dimethyl-1-phenylpropyl]-3-[3-(4-fluorophenyl)-4-(hydroxymethyl)-1H-pyrazolo[4,3-c]pyridin-6-yl]urea]
  IC50: 8.64 nM

## COCc1nc(NC(=O)N[C@H](C)c2ccccc2)cc2[nH]nc(-c3ccnc(C)c3)c12 [Example 20, (R)-1-(4-(Methoxymethyl)-3-(2-methylpyridin-4-yl)-1H-pyrazolo[4,3-c]pyridin-6-yl)-3-(1-phenylethyl)urea]
  IC50: 1.13 nM

## CC(C)(O)[C@@H](NC(=O)Nc1cc2[nH]nc(-c3ccccc3)c2c(CO)n1)c1ccccc1 [Example 18, 1-[(1S)-2-hydroxy-2-methyl-1-phenylpropyl]-3-[4-(hydroxymethyl)-3-phenyl-1H-pyrazolo[4,3-c]pyridin-6-yl]urea]
  IC50: 0.37 nM

## CC(C)(O)[C@@H](NC(=O)Nc1cc2[nH]nc(-c3ccc(F)cc3)c2c(CO)n1)c1ccc(F)cc1 [Example 15, 1-[(1S)-1-(4-fluorophenyl)-2-hydroxy-2-methylpropyl]-3-[3-(4-fluorophenyl)-4-(hydroxymethyl)-1H-pyrazolo[4,3-c]pyridin-6-yl]urea]
  IC50: 0.29 nM

## CC(C)(O)[C@@H](NC(=O)Nc1cc2[nH]nc(-c3ccc(C#N)cc3)c2c(CO)n1)c1ccccc1 [Example 19, 1-[3-(4-cyanophenyl)-4-(hydroxymethyl)-1H-pyrazolo[4,3-c]pyridin-6-yl]-3-[(1S)-2-hydroxy-2-methyl-1-phenylpropyl]urea]
  IC50: 0.53 nM

## CC(O)c1n[nH]c2cc(NC(=O)N[C@H](C)c3ccccc3)nc(CO)c12 (stereo partly drawn) [Example 27, 1-(3-(1-hydroxyethyl)-4-(hydroxymethyl)-1H-pyrazolo[4,3-c]pyridin-6-yl)-3-((R)-1-phenylethyl)urea]
  IC50: 5.52 nM

## CC(=O)c1n[nH]c2cc(NC(=O)N[C@H](C)c3ccccc3)nc(CO)c12 [Example 26, (R)-1-(3-acetyl-4-(hydroxymethyl)-1H-pyrazolo[4,3-c]pyridin-6-yl)-3-(1-phenylethyl)urea]
  IC50: 12.7 nM
